Measurements reported in PubChem BioAssay (NCI).
Several values for one entry are separate records, joined by “and”; a condition that tells them apart may be missing. Identical values can stand only once.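 48-hour exposure; five concentrations; linearly interpolated endpoints. Here, GI50 denotes the concentration required for 50% inhibition of growth. TGI is the concentration that stops growth completely.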

What was measured:
Assay in all cases: NCI-60 cell line screen, 48 h
[1] = system: HCC-2998 colon
[2] = system: OVCAR-8 ovarian
[3] = system: COLO 205 colon
[4] = system: SK-MEL-2 melanoma
[5] = system: NCI-H460 lung
[6] = system: NCI/ADR-RES ovarian
[7] = system: HCT-15 colon
[8] = system: UACC-62 melanoma
[9] = system: BT-549 breast
[10] = system: 786-0 renal
[11] = system: OVCAR-4 ovarian
[12] = system: MOLT-4 leukemia
[13] = system: SF-268 CNS
[14] = system: NCI-H226 lung

SMILES	TGI [1]	TGI [2]	TGI [3]	TGI [4]	TGI [5]	TGI [6]	TGI [7]	TGI [8]	TGI [9]	TGI [10]	TGI [11]	TGI [12]	TGI [13]	TGI [14]	GI50 [2]	GI50 [3]	GI50 [4]	GI50 [8]	GI50 [13]
CN(C)CCCNc1ccc2nnn3c4ccc(OC(=O)c5ccc([N+](=O)[O-])cc5)cc4c(=O)c1c23	25.5 µM	20.8 µM	18.2 µM	> 52.1 µM	17.9 µM	37.5 µM	24.1 µM	37 µM	35.8 µM	16.6 µM	10.9 µM	33.2 µM	21.9 µM						
O=C1CCc2cc3c(cc21)CC1(Cc2cc4c(cc2C1)CCCC4)C3	> 100 µM	> 100 µM	> 100 µM	> 100 µM	> 100 µM	> 100 µM	> 100 µM	> 100 µM	> 100 µM		> 100 µM	> 100 µM	> 100 µM						
FC(F)(F)C1(C(F)(F)F)O[SiH]2(OC(C(F)(F)F)(C(F)(F)F)c3ccccc32)c2ccccc21	37.4 µM	83.9 µM	45.2 µM	49.3 µM	25.5 µM		25.9 µM			31.7 µM	23.4 µM	30.5 µM		20.3 µM					
O=C(n1c(=O)n(-c2ccc(Cl)cc2)c(=O)n1C(=O)C(Cl)(Cl)Cl)C(Cl)(Cl)Cl	> 100 µM	> 100 µM	> 100 µM	> 100 µM	> 100 µM	> 100 µM		> 100 µM	> 100 µM	> 100 µM	> 100 µM	> 100 µM	> 100 µM						
C=CCCCCCC(O)C(O)C/C=C\C/C=C\CC (stereo not given)	> 18.8 µM	> 18.8 µM	> 18.8 µM	> 18.8 µM	> 18.8 µM		> 18.8 µM	> 18.8 µM		> 18.8 µM	> 18.8 µM	> 18.8 µM	> 18.8 µM	> 18.8 µM					
CC1=NN(C(=O)c2ccccc2O)C(c2ccccc2Cl)C1C(=O)Nc1ccccc1 (stereo not given)	> 100 µM	> 100 µM	> 100 µM	> 100 µM	> 53.1 µM	> 49.5 µM	> 100 µM	> 51.2 µM		> 44.9 µM	> 100 µM	> 85.7 µM	30.8 µM	8.02 µM					
Nc1nc(Cl)cc(NCCCCCCCCCCCCNc2cc(Cl)nc(N)n2)n1	> 100 µM	44 µM	> 100 µM	> 100 µM	> 100 µM		> 100 µM	> 100 µM			75.2 µM	> 100 µM	> 100 µM	66.9 µM					
[O-]c1c[n+](CC[n+]2cc([O-])on2)no1	> 100 µM	> 100 µM	> 100 µM	> 100 µM	> 100 µM	> 100 µM	> 100 µM	> 100 µM	> 100 µM	> 100 µM	> 100 µM	> 100 µM	> 100 µM						
CCOC(=O)/C=C/c1c[nH]c(C(=O)OCC)c1	> 100 µM	> 100 µM	> 100 µM	> 100 µM	> 100 µM	> 100 µM	> 100 µM	> 100 µM			> 100 µM	> 100 µM	> 100 µM	> 100 µM					
Cc1ccc(S(=O)(=O)c2c3[nH]c4ccccc4nc3n3c2nc2ccccc23)cc1	> 100 µM	> 100 µM	> 100 µM	> 100 µM	> 100 µM		> 100 µM	> 100 µM		> 100 µM	> 100 µM	> 100 µM	> 100 µM						
COc1cc(C2c3cc4c(cc3[C@@H](NCCCN(C)C)[C@H]3COC(=O)C23)OCO4)cc(OC)c1O (stereo not given in full)	1.48 µM and 1.35 µM	1.2 µM and 5.09 µM	3.93 µM and 5.78 µM	1.46 µM and 5.09 µM	0.632 µM and 0.336 µM		1.69 µM and 4.63 µM	0.643 µM and 0.924 µM				0.21 µM	1.51 µM and 7.28 µM		0.333 µM and 1.26 µM	0.714 µM and 1.94 µM	0.733 µM and 1.96 µM	0.112 µM and 0.288 µM	0.202 µM and 0.591 µM
COC(=O)CC1(O)C(/C=C/c2ccccc2)C(C(=O)OC)C(=O)C(C(=O)OC)C1C(=O)OC (stereo not given)	> 100 µM	> 100 µM	> 100 µM	> 100 µM	> 100 µM	> 100 µM	> 100 µM	> 100 µM		> 100 µM	> 100 µM	> 100 µM	> 100 µM	> 100 µM					
[C-]#[N+]C1(C(=O)OCC)CC1	> 100 µM	> 100 µM			> 100 µM	> 100 µM	> 100 µM	> 100 µM		> 100 µM	> 100 µM	> 100 µM	> 100 µM	> 100 µM					
ClCc1ccc2ccc3ccc(CCl)nc3c2n1	8.59 µM		3.15 µM	4.81 µM	19.6 µM	3.66 µM	4.69 µM	2.64 µM			14.5 µM	4.02 µM	55 µM	9.91 µM					
CO/N=C(/C(=O)OC)c1ccccc1COc1cccc(C(F)(F)F)c1			> 100 µM	> 100 µM	> 100 µM	> 100 µM	> 100 µM	> 100 µM		> 100 µM	> 100 µM	34.4 µM	> 100 µM	> 100 µM					
COc1ccc2c(c1)CCCN1Cc3ccccc3CC21 (stereo not given)	> 100 µM	> 100 µM	> 100 µM		> 100 µM	> 100 µM	> 100 µM	> 100 µM	> 100 µM	> 100 µM	> 100 µM	> 100 µM	> 100 µM	> 100 µM					
O=C1c2ccccc2-c2c1c(-c1ccccc1)c1n2C2(C(=O)c3ccccc3C2=O)C2C(=O)N(c3ccccc3)C(=O)C12 (stereo not given)		> 100 µM	50.7 µM	51.4 µM	36.9 µM	> 100 µM	42.8 µM	49 µM	45.2 µM	68.9 µM	> 100 µM	> 100 µM	65.6 µM	43.5 µM					
